# Data reported in patent publication US20170328922A1, “METHODS AND PRODUCTS FOR LABELLING LIPIDS” (UNIVERSITY OF SOUTH AUSTRALIA, priority 2014, published 2017).
# Columns and labels:
# [1] = tested on: Drosophila fat body tissue; assay: Live staining and confocal imaging of explanted fat body tissue; assay type: cell-based
# Description: All stocks were maintained in standard medium at 25° C. The yeast GAL4-UAS system was used for targeted gene expression (Brand and Perrimon, 1993). Fat-body specific expression of transgenes from the UAS were driven by CG-GAL4 (Asha et al., 2003). Transgenic UAS-Atg9RNAi stocks (#34901) and UAS-TorTED stocks (#7013) were obtained from the Bloomington Drosophila Stock Centre (Indiana University, IN, USA). Atg8aGFP was driven by an endogenous promoter (Kelso et al., 2004).
# Bromophenol-blue was added to the fly media and used to define different developmental time points. […] Newly formed white pupae (0 h PF), were isolated onto moist filter paper and incubated at 25° C. for either two hours (+2 h PF) or four hours (+4 h PF).
# Third instar larvae at −8 h PF were removed from standard media (normally feeding at this developmental stage) and placed on filter paper either soaked in 5% (w/v) sucrose (for amino acid deprivation), or 5% (w/v) tryptone pancreatic digest of casein (BD Bioscience USA; for carbohydrate deprivation), or soaked in water (for complete starvation). Larvae were incubated for 4-5 hours prior tissue isolation and imaging.
# Fat body tissue was dissected into PBS from Drosophila larvae or pupae. The fat body tissue was either incubated with 10 μM tricarbonyl phenanthrolin (4-cyanophenyltretrazolato) Rhenium (I) in PBS for 15 minutes at room temperature, or LysoTracker® green (according to manufacturer instructions; Invitrogen, USA) and then mounted in carbomer-940 (Snowdrift farm, Tucson, USA) based optical coupling gel to prevent dehydration prior to imaging (Rothstein et al., 2006). For Oil Red O staining, fat body tissue was fixed in 4% (v/v) paraformaldehyde for 20 minutes, and incubated in 1/100 Oil Red 0 for 30 minutes and then washed in PBS before mounting in 80% glycerol.
# A Ziess LSM710 META NLO confocal microscope (Zeiss, Germany), supplemented with a two-photon Mai-Tai® (tunable Ti:Sapphire femtosecond pulse laser, 710-920 nm, Spectra-Physics, Australia) was used for imaging. The images were acquired using a Plan-APOCHROMAT 63×/NA1.4 oil immersion objective. The Rhenium probe was excited at 830 nm using the two-photon pulse laser and detect at 600-654 nm. LysoTracker® green was imaged by excitation at 488 nm and detected at 497-558 nm. Atg8a-GFP was imaged with the Rhenium probe by excitation at 830 nm and resolved using spectral un-mixing using the Zen software package (based on spectral figure-printing of the two components). The Rhenium probe images and co-location analysis involved at least five separate images from five independent biological replicates, and one representative image from each treatment was selected for presentation (containing a minimum of 2 cells). For image quantification, two regions of interest (ROI) were selected at random with an area of 2500 μm^2 and the number of fluorescent puncta within the area counted, to give a minimum of 10 counts per treatment group. Comparison of means was performed by ANOVA with a Tukey post hoc tested in GraphPad Prism V.6.01 (USA).
# [2] = tested on: Drosophila fat body cells; assay: Live tissue staining with rhenium molecular probes (Examples 10, 13); assay type: cell-based
# Description: Probes were dissolved in DMSO to obtain a stock solution with a concentration of 10 mM. Stock solutions were stored at room temperature in a dark place. Working solutions were prepared only at the time of use as the probe has reduced solubility in aqueous solutions. A Working solution was a dilution 1/1000 to 1/500 of the stock in DMSO to PBS or cell medium, and as such the percentage of DMSO used in actual cell experiments was less than 1%.
# For tissues, the tissues were isolated in PBS (or other physiological media) and mounted on a coverslip. For cells, these were grown as per normal practice on coverslips.
# The media was removed media and replaced with 10-20 μM solution of molecular probes in PBS (or appropriate physiological media/cell media) at a dilution of stock solution from 1/1000-1/500, for 15-30 minutes at physiologically appropriate temperature (37° C. for cell culture or 25° C. for insect larvae). […] If foetal calf serum is necessary for cell health, an increased incubation time may be necessary to obtain adequate staining.
# The samples were washed for one minute in PBS. If co-staining was performed, the samples were washed in PBS for 30 seconds, before incubating with counterstain.
# Tissues were mounted in optical coupling gel, such as carbomer-940 (Snowdrift farm, Tucson, USA) based gel to prevent dehydration prior to imaging and maintain tissue integrate (Rothstein, E. C., Nauman, M., Chesnick S., Balaban R. S., 2006, Multi-photon excitation microscopy in intact animals Journal of Microscopy 222, 58, 64). For cells, the coverslip was mounted in PBS for immediate imaging.
# Samples were imaged immediately following staining.
# Rhenium molecular probes were? excited at 800-830 nm using a two-photon pulse laser or 405 steady state laser and detection in the range of 490-670 nm, with an emission maxima at around 570.
# Micrographs of 3T3 L1, 453 cells and CHOK1 cells and Drosophila fat body tissue stained with rhenium molecular probes, PhenCyan top, PhenPyridyl bottom are shown in FIG. 10. […] Left: confocal images; Right: fluorescence microscopy images. […]
compound,measurement,setting,value
"N#Cc1ccc(-c2nn[n]([Re](=[C]=O)(=[C]=O)=[C]=O)n2)cc1.c1cnc2c(c1)ccc1cccnc12 [PhenCyano, Triscarbonyl phenanthroline (4-cyanophenyltetrazolato)Rhenium(I)]",probe distribution in fat body,"[1]; 0 h PF, 10 μM probe, 15 minutes",most of the Rhenium probe was still inside lipid droplets
same,probe distribution in fat body,"[1]; +2 h PF, 10 μM probe, 15 minutes",dramatic reduction in the amount of Rhenium probe interacting with lipid droplets
same,vesicles staining with the probe that were also Atg8a-GFP positive,[1]; −4 h PF larvae starved (amino acid and sugar deprivation),approximately 90±11%
same,probe distribution in fat body,"[1]; −4 h PF, 10 μM probe, 15 minutes",interacted with the core of lipid droplets
same,probe distribution in fat body,"[1]; −8 h PF, dominant negative TorTED expression",almost all of the Rhenium probe in LysoTracker® green positive vesicles
same,emission spectral profile in the acidic compartment versus lipid droplet,"[2]; +2 h PF, following autophagic inducement",blue shift and an increase in emission intensity
same,staining pattern in Drosophila fat body cells,"[2]; live samples, 10-20 μM probe",distribution consistent with lipid droplet staining
